The target in data set [1] is T1, human recombinant MAO-B (hMAO-B) (Homo sapiens, UniProt P27338).
T1 construct: purchased Sigma Aldrich
T1 sequence (P27338 1-520): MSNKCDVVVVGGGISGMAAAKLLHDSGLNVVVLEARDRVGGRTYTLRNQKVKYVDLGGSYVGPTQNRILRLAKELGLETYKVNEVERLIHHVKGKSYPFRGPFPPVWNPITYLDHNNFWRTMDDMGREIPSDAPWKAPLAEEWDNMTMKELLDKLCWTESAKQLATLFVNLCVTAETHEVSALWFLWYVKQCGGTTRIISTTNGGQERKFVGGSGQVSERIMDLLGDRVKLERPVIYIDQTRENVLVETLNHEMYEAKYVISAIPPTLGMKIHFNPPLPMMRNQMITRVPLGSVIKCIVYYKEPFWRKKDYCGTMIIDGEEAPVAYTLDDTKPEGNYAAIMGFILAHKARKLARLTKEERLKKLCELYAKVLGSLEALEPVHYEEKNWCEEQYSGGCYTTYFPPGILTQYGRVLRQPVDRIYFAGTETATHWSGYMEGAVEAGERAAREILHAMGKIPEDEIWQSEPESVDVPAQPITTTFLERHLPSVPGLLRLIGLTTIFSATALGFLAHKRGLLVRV
The following applies: ref Park, JH. et al. Science Advances. 5(3), eaav0136 (2019), cited from earlier work; for IC50: hMAO-B, read-out: Inhibition (IC50) MAO-B; for SI (selectivity index), IC50(MAO-A)/IC50(MAO-B): selectivity for MAO-B isoform.

Data set [2] has as its target T2, human recombinant MAO-A (hMAO-A) (Homo sapiens, UniProt P21397).
T2 construct: purchased Sigma Aldrich
T2 sequence (P21397 1-527): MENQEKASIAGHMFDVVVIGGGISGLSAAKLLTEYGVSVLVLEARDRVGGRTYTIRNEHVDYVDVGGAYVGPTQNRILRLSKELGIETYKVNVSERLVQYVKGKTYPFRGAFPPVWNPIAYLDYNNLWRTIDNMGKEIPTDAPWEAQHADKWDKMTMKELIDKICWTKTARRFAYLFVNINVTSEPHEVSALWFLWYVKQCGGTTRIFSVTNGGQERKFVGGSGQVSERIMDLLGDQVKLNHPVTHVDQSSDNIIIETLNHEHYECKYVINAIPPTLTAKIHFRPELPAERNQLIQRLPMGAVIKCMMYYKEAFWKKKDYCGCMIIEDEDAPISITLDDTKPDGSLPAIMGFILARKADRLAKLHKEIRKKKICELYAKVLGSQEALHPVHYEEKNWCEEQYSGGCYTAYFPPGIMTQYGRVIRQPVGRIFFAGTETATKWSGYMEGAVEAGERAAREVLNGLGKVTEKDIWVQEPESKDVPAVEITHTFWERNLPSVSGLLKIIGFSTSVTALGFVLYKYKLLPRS
The following applies: ref Park, JH. et al. Science Advances. 5(3), eaav0136 (2019), read-out: Inhibition (IC50) MAO-A; cited from earlier work.

For data set [3], the system named is MPTP-induced PD mouse model. Nature of the data set: MPTP mouse model: vertical grid test and coat hanger test. It is filed as in vivo. The following applies: MPTP mice; long-term (30-day) treatment, 10 mg/kg/day oral.
Method: Group allocation and outcome assessment, but not the conduct of experiments and data analysis, were performed in a blinded manner. Throughout the study, confounders were not controlled. An acclimation period of 7 days was allowed for animals to stabilize in a new environment before model induction. […] Treatment drugs were dissolved in 100 μL of water and total dose (in mg) was calculated according to individual body weight (in kg).
The MPTP model was established using the acute regimen of four intraperitoneal (i.p.) injections of MPTP-HCl (M0896, Sigma Aldrich, 2 mg/mL in saline, 20 mg/kg for one injection) at 2-h intervals.
Motor deficits of the MPTP-induced PD mouse model were assessed using the vertical grid test as described in the previous study [23]. Briefly, after 2 days of habituation to the testing apparatus, individual mice were gently placed 3 cm from the top, facing upward, and allowed to turn around and climb down. We also performed a coat hanger test as described [24–26]. Briefly, a mouse was gently hung on the middle of a coat hanger and allowed to ascend to the top. Performance was graded as follows: 0, falling off the hanger within 20 s; 1, moving to the side-bar of the hanger; 2, reaching the side-bar of the hanger; 3, climbing the side-bar of the hanger; 4, moving to the top of the hanger; 5, climbing and reaching the safe zone. The test was performed twice and each trial lasted a maximum of 3 min.
The next data set relates to 6-OHDA model rats. Nature of the data set: 6-OHDA rat model: stepping test, rotarod test, TH. The following applies: 6-OHDA rats; 10 mg/kg/day for 15 days starting 17 days post-6-OHDA. In general terms: The rotarod test checks motor coordination on a turning rod.
For data set [4], the system named is MPTP-induced PD mouse model. In words: MPTP mouse model: TH (DAB) and Nissl staining of SNpc and striatum. As to conditions: MPTP mice; long-term treatment, 29 days before MPTP and one more day after, 10 mg/kg/day oral; 10 mg/kg/day.
Method: (§1) Group allocation and outcome assessment, but not the conduct of experiments and data analysis, were performed in a blinded manner. Throughout the study, confounders were not controlled. An acclimation period of 7 days was allowed for animals to stabilize in a new environment before model induction. […] Treatment drugs were dissolved in 100 μL of water and total dose (in mg) was calculated according to individual body weight (in kg). […] An experiment was halted if body weight decreased by 20% or more after MPTP or 6-hydroxydopamine (6-OHDA) treatment.
The MPTP model was established using the acute regimen of four intraperitoneal (i.p.) injections of MPTP-HCl (M0896, Sigma Aldrich, 2 mg/mL in saline, 20 mg/kg for one injection) at 2-h intervals. All MPTP use and safety precautions were strictly followed as described [18].
Coronal sections for striatum and SNpc were prepared at 30-μm thickness and immunostained using a DAB staining kit (TL-060-QHD, Thermo, MA, USA). […] After washing in PBS 3 times, sections were incubated in Primary Antibody Amplifier Quanto (TA-060-QPB, Thermo) for 5 min, washed again in PBS, incubated in HRP Polymer Quanto for 1 h, washed 4 times in PBS, and dipped for 30 s in a 1:10 mixture of DAB + chromogen and DAB + substrate buffer (K3468, Dako, Denmark). Finally, sections were washed, immersed in mounting medium, and dried.
Every 6th section including the SN was stained with anti-TH and the number of TH-positive neurons counted under low magnification (× 10) from the rostral tip of the SNpc to the caudal end of the substantia nigra pars reticulate (SNpr). […] The total number of neurons per section was estimated according to the optical fractionator formula. The total number of SNpc neurons in a hemisphere was then obtained by multiplying the number counted using Stereo Investigator 11 by the slice interval (six).
Other 30-μm-thick coronal sections from the SNpc were Nissl stained to assess viable cell number. Briefly, slices were stained with 0.1% cresyl violet solution for 3 min, rinsed with distilled water, and placed in a chamber filled with 70% ethanol for 1 min. […] A series of bright field images were obtained using an Olympus microscope. The slices were classified according to AP coordinates and Nissl-positive neurons counted using the counting tool of ImageJ (NIH, MD, USA).
Data set [5] in a line: H2O2 scavenging capacity test (Amplex red/HRP). As to conditions: 10 min incubation with H2O2 at RT. The procedure:
To determine the H2O2 scavenging capacity of the test compound, H2O2 concentration was measured using the modified Amplex red/horseradish peroxidase (HRP) detection method as described previously. Briefly, a H2O2 solution was incubated with the test compound for 10 min at room temperature (RT), and then the reaction solution containing 20 mM Amplex red and 200 U/mL HRP was added. The absorbance was measured at 570 nm using a microplate reader. The H2O2 scavenging capacities were compared to a blank negative control and to the known H2O2 scavenger epigallocatechin gallate (EGCG) as a positive control.

Method for 6-OHDA model rats: as §1
Finally, the 6-OHDA model was prepared as previously described [21]. Under general anesthesia, all rats received unilateral injections of 8 μg 6-OHDA (Sigma Aldrich) in 4 μL saline/0.1% ascorbic acid into the right medial forebrain bundle (AP − 2.2 mm and L + 1.5 mm relative to the bregma, V − 8.0 mm from the dura) [19], with the tooth bar set at + 4.5 mm.
Motor deficits of 6-OHDA and A53T mutant α-synuclein model rats were assessed as previously described with slight modifications [27]. Briefly, both hind limbs and one forelimb were firmly fixed in the two hands of the experimenter, and the rat was lowered over a treadmill moving at rate of 18 cm/s such that the body remained stationary while the free forelimb was allowed to spontaneously touch the moving treadmill track for 10 s. All experimental sessions were video recorded to count the number of adjusting steps taken in the backward direction. The number of adjusting steps was averaged across four trials in each session.
In addition, impaired motor coordination of 6-OHDA model rats was examined using the rotarod test as previously described with slight modifications [28]. […] Before the first rotarod test, all rats were pre-trained until riding time reached 60 s at 10 rpm (B.S Technolab, Seoul, Korea). Each session consisted of two trials, and riding time was averaged to obtain pre-6-OHDA, 0d, 7d, and 15d results.

Take `C[C@H](NCc1ccc(-c2cccc(Cl)c2)cc1)C(N)=O` [Compound 18f]: the melting point (commonly the temperature of the solid-liquid transition) was 220 to 223 °C. For the same molecule, in data set [1], the IC50 (commonly the midpoint of a concentration-inhibition curve) is 0.242 ± 0.008 µM and the “SI (selectivity index), IC50(MAO-A)/IC50(MAO-B)” value (“SI (selectivity index)” for short) is given as over 413. In addition, in data set [2], the IC50 was over 100 µM.

Molecule `C[C@H](NCc1ccc(-c2ccc(Cl)cc2)cc1)C(N)=O` [Compound 18g] registered a melting point of 220 to 223 °C. For the same molecule, in data set [1], the IC50 is 0.182 ± 0.007 µM and the “SI (selectivity index)” value is recorded as over 549. Besides, in data set [2], the IC50 was over 100 µM.

The molecule `C[C@H](NCc1ccc(-c2ccccc2C(F)(F)F)cc1)C(N)=O` [Compound 18h] had a melting point of 224 to 227 °C. Also, in data set [1], the IC50 is over 10 µM. Also, the IC50 in data set [2] was over 100 µM.

Molecule `C[C@H](NCc1ccc(-c2cccc(C(F)(F)F)c2)cc1)C(N)=O` [Compound 18i] had a melting point of 215 to 217 °C. For the same molecule, in data set [1], the IC50 is 0.316 ± 0.006 µM and the “SI (selectivity index)” value is recorded as over 316. Moreover, the IC50 in data set [2] was over 100 µM.

On to `C[C@H](NCc1ccc(-c2cccc(OC(F)(F)F)c2)cc1)C(N)=O` [Compound 18k], for which the melting point was 209 to 212 °C. Further, in data set [1], the “SI (selectivity index)” value is listed as over 463. Moreover, in data set [2], the IC50 is over 100 µM.

The molecule `C[C@H](NCc1ccc(-c2ccc(OC(F)(F)F)cc2)cc1)C(N)=O` [Compound 18l] registered a melting point of 256 to 259 °C. In data set [1], the “SI (selectivity index)” value is > 1,020. In addition, in data set [2], the IC50 is over 100 µM.

On to `C#CCN(C)[C@H](C)Cc1ccccc1` [selegiline, reference compound], for which, in data set [3], the “vertical grid test: time to turn” value is recorded as “reduced” and the “vertical grid test: total time” value is recorded as “reduced”. Further, the “stepping test: stepping behavior deficit of the contralateral forepaw” value with 6-OHDA model rats is “did not improve”. Moreover, the “loss of TH-positive cells in the SNpc” value in data set [4] is “non-significant increasing tendency”.

Take “epigallocatechin-3-gallate [EGCG, reference compound]”: the H2O2 scavenging effect entry in data set [5] is listed as “dose-dependent effect of H2O2 scavenging”.

Values taken from paper PMC8608967, “KDS2010, a Newly Developed Reversible MAO-B Inhibitor, as an Effective Therapeutic Candidate for Parkinson’s Disease” (Neurotherapeutics, 2021).
